Measured values as given in patent US8846367B2, “Coryneform bacterium transformant and process for producing phenol using the same” (Green Phenol Development Co., Ltd., priority 2010, dated 2014).
Like-named read-outs stand apart in the source and are kept apart here.

Experiments:
[1] = test system: Corynebacterium glutamicum R; conditions: aerobic culture, A liquid medium, 33° C.
Procedure: (§1) A growth inhibition test in aerobic culture was performed to examine the influence of phenol on Corynebacterium glutamicum, Escherichia coli, and Pseudomonas putida. Pseudomonas putida S12, which was used for the test, is reported to be a solvent-resistant strain. In the report, disclosed is an unparalleled technology using the strain as a host in phenol production.
Corynebacterium glutamicum R was applied to A agar medium (2 g of (NH2)2CO, 7 g of (NH4)2SO4, 0.5 g of KH2PO4, 0.5 g of K2HPO4, 0.5 g of MgSO4.7H2O, 1 mL of 0.06% (w/v) Fe2SO4.7H2O+0.042% (w/v) MnSO4.2H2O, 1 mL of 0.02% (w/v) biotin solution, 2 mL of 0.01% (w/v) thiamin solution, 2 g of yeast extract, 7 g of vitamin assay casamino acid, 40 g of glucose, and 15 g of agar were suspended in 1 L of distilled water) and was left stand in the dark at 33° C. for 15 hours.
An inoculation loop of the Corynebacterium glutamicum R grown on a plate as above was inoculated into a test tube containing 10 mL of A liquid medium (2 g of (NH2)2CO, 7 g of (NH4)2SO4, 0.5 g of KH2PO4, 0.5 g of K2HPO4, 0.5 g of MgSO4.7H2O, 1 mL of 0.06% (w/v) Fe2SO4.7H2O+0.042% (w/v) MnSO4.2H2O, 1 mL of 0.02% (w/v) biotin solution, 2 mL of 0.01% (w/v) thiamin solution, 2 g of yeast extract, 7 g of vitamin assay casamino acid, and 40 g of glucose were suspended in 1 L of distilled water) and was aerobically cultured with shaking at 33° C. for 13 hours.
(§2) The Corynebacterium glutamicum R grown in the above conditions was inoculated into 100 mL of A liquid medium in such a way that the initial bacterial cell concentration would be OD610=0.05, phenol was added at the same time in such a way that the final concentration would be 0, 0.16, 0.2, 0.24, or 0.32 mM, and aerobic culture was performed with shaking at 33° C. The growth of bacterial cells was determined by absorbance measurement at OD610.

Pseudomonas putida S12 = conditions: aerobic culture, LB (+glucose) liquid medium, 30° C.
Procedure: as §1
(§3) Pseudomonas putida F1 and S12 were applied to LB agar medium (1% polypeptone, 0.5% yeast extract, 0.5% NaCl and 1.5% agar) and were left stand in the dark at 30° C. for 15 hours.
(§4) An inoculation loop of each of the Pseudomonas putida F1 and S12 grown on a plate as above was inoculated into a test tube containing 10 mL of LB (+glucose) liquid medium (1% polypeptone, 0.5% yeast extract, 0.5% NaCl and 0.4% glucose), and aerobic culture was performed with shaking at 30° C. for 13 hours.
as §2, with “The Pseudomonas putida F1 and S12” for “The Corynebacterium glutamicum R”, “conditions were each” for “conditions was”, “of LB (+glucose)” for “of A”, “0, 0.10,” for “0, 0.16, 0.2, 0.24,”, “or 0.20” for “or 0.32”, “at 30°” for “at 33°”

Pseudomonas putida F1 = conditions: aerobic culture, LB (+glucose) liquid medium, 30° C.
Procedure: as §1, §3, §4
as §2, with “The Pseudomonas putida F1 and S12” for “The Corynebacterium glutamicum R”, “conditions were each” for “conditions was”, “of LB (+glucose)” for “of A”, “0, 0.10,” for “0, 0.16, 0.2, 0.24,”, “or 0.20” for “or 0.32”, “at 30°” for “at 33°”

Escherichia coli JM109 = conditions: aerobic culture, LB liquid medium, 37° C.
Procedure: as §1
Escherichia coli JM109 was applied to LB agar medium (1% polypeptone, 0.5% yeast extract, 0.5% NaCl and 1.5% agar) and was left stand in the dark at 37° C. for 15 hours.
An inoculation loop of the Escherichia coli JM109 grown on a plate as above was inoculated into a test tube containing 10 mL of LB liquid medium (1% polypeptone, 0.5% yeast extract, and 0.5% NaCl), and aerobic culture was performed with shaking at 37° C. for 13 hours.
as §2, with “Escherichia coli JM109” for “Corynebacterium glutamicum R”, “LB” for “A”, “0.16,” for “0.16, 0.2, 0.24,”, “0.20” for “0.32”, “37°” for “33°”

## Oc1ccccc1 [phenol]
[1]; 0.16% phenol
  proliferation of Corynebacterium glutamicum (OD610): hardly affected
[1]; 0.20% phenol
  proliferation of Corynebacterium glutamicum (OD610): favorable growth
[1]; 0.24% phenol
  proliferation of Corynebacterium glutamicum (OD610): able to proliferate
Pseudomonas putida S12; 0.10% phenol
  proliferation of Pseudomonas putida S12 (OD610): significantly affected
Pseudomonas putida S12; 0.20% phenol
  proliferation of Pseudomonas putida S12 (OD610): completely inhibited
Pseudomonas putida F1; 0.10% phenol
  proliferation of Pseudomonas putida F1 (OD610): significantly affected
Pseudomonas putida F1; 0.20% phenol
  proliferation of Pseudomonas putida F1 (OD610): completely inhibited
Escherichia coli JM109; 0.16% phenol
  proliferation of Escherichia coli (OD610): significantly affected
Escherichia coli JM109; 0.20% phenol
  proliferation of Escherichia coli (OD610): completely inhibited
